Test results: US7902201B2, “Isoxazolo-pyrazine derivatives” (Hoffmann-La Roche Inc., priority 2007, dated 2011)

Target: T1, GABA A receptors containing the α5 subunit (α5β3γ2) (Homo sapiens, UniProt P18507+P31644)
T1 construct: expressed in transfected cells; host or cells: HEK293 (transiently transfected); membranes prepared from cell pellets
Test: [3H]flumazenil competition binding assay, human GABA A receptor (hKi)
Details: human receptor transiently transfected in HEK293 cells, means of two determinations
Method: The affinity of compounds at GABA A receptor subtypes was measured by competition for [3H]flumazenil (85 Ci/mmol; Roche) binding to HEK293 cells expressing rat (stably transfected) or human (transiently transfected) receptors of composition α1β3γ2, α2β3γ2, α3β3γ2 and α5β3γ2.
Cell pellets were suspended in Krebs-tris buffer (4.8 mM KCl, 1.2 mM CaCl2, 1.2 mM MgCl2, 120 mM NaCl, 15 mM Tris; pH 7.5; binding assay buffer), homogenized by polytron for ca. 20 sec on ice and centrifuged for 60 min at 4° C. (50000 g; Sorvall, rotor: SM24=20000 rpm). The cell pellets were resuspended in Krebs-tris buffer and homogenized by polytron for ca. 15 sec on ice. Protein was measured (Bradford method, Bio-Rad) and aliquots of 1 mL were prepared and stored at −80° C.
Radioligand binding assays were carried out in a volume of 200 μL (96-well plates) which contained 100 μL of cell membranes, [3H]flumazenil at a concentration of 1 nM for α1, α2, α3 subunits and 0.5 nM for α5 subunits and the test compound in the range of […]. Nonspecific binding was defined by 10^−5 M diazepam and typically represented less than 5% of the total binding. Assays were incubated to equilibrium for 1 hour at. 4° C. and harvested onto GF/C uni-filters (Packard) by filtration using a Packard harvester and washing with ice-cold wash buffer (50 mM Tris; pH 7.5). After drying, filter-retained radioactivity was detected by liquid scintillation counting. Ki values were calculated using Excel-Fit (Microsoft) and are the means of two determinations.

Row | Compound | Ki [nM]
1 | 5-[(5-Methyl-3-phenyl-isoxazol-4-ylmethyl)-amino]-pyrazine-2-carboxylic acid (tetrahydro-pyran-4-yl)-amide [Example 11] | 12.1
2 | O=C(NCC1CC1)c1cnc(OCc2conc2-c2ccc(F)cc2)cn1 [Example 14, 5-[3-(4-Fluoro-phenyl)-isoxazol-4-ylmethoxy]-pyrazine-2-carboxylic acid cyclopropylmethyl-amide] | 21
3 | Cc1onc(-c2ccccc2)c1COc1cnc(C(=O)NC2CCOCC2)cn1 [Example 6, 5-(5-Methyl-3-phenyl-isoxazol-4-ylmethoxy)-pyrazine-2-carboxylic acid (tetrahydro-pyran-4-yl)-amide] | 1.2
4 | O=C(NCC(F)(F)F)c1cnc(OCc2conc2-c2ccc(F)cc2)cn1 [Example 13, 5-[3-(4-Fluoro-phenyl)-isoxazol-4-ylmethoxy]-pyrazine-2-carboxylic acid (2,2,2-trifluoro-ethyl)-amide] | 24
5 | O=C(NC1CCOCC1)c1cnc(OCc2conc2-c2ccccn2)cn1 [Example 19, 5-(3-Pyridin-2-yl-isoxazol-4-ylmethoxy)-pyrazine-2-carboxylic acid (tetrahydro-pyran-4-yl)-amide] | 14.3
6 | Cc1onc(-c2ccccc2)c1CNc1cnc(C(=O)NC(C)C)cn1 [Example 9, 5-[(5-Methyl-3-phenyl-isoxazol-4-ylmethyl)-amino]-pyrazine-2-carboxylic acid isopropylamide] | 9.6
7 | 5-[(5-Methyl-3-phenyl-isoxazol-4-ylmethyl)-amino]-pyrazine-2-carboxylic acid cyclopropylamide [Example 10] | 10.4
8 | Cc1onc(-c2ccc(F)cn2)c1COc1cnc(C(=O)NC2CCOCC2)cn1 [Example 12, 5-[3-(5-Fluoro-pyridin-2-yl)-5-methyl-isoxazol-4-ylmethoxy]-pyrazine-2-carboxylic acid (tetrahydro-pyran-4-yl)-amide] | 0.3
9 | O=C(NC1CC1)c1cnc(OCc2conc2-c2ccccn2)cn1 [Example 21, 5-(3-Pyridin-2-yl-isoxazol-4-ylmethoxy)-pyrazine-2-carboxylic acid cyclopropylamide] | 13.7
10 | Cc1onc(-c2ccccc2)c1COc1cnc(C(=O)NC(C)(C)C)cn1 [Example 4, 5-(5-Methyl-3-phenyl-isoxazol-4-ylmethoxy)-pyrazine-2-carboxylic acid tert-butylamide] | 10.8
11 | CC(C)NC(=O)c1cnc(OCc2conc2-c2ccc(Cl)cc2)cn1 [Example 16, 5-[3-(4-Chloro-phenyl)-isoxazol-4-ylmethoxy]-pyrazine-2-carboxylic acid isopropylamide] | 11.6
12 | Cc1onc(-c2ccccc2)c1COc1cnc2ccccc2n1 [Example 8, 2-(5-Methyl-3-phenyl-isoxazol-4-ylmethoxy)-quinoxaline] | 7.4
13 | Cc1onc(-c2ccccc2)c1COc1cnc(C(=O)NC(C)C)cn1 [Example 3, 5-(5-Methyl-3-phenyl-isoxazol-4-ylmethoxy)-pyrazine-2-carboxylic acid isopropylamide] | 1.2
14 | Cc1onc(-c2ccccc2)c1COc1cnc(C(=O)NC2CC2)cn1 [Example 5, 5-(5-Methyl-3-phenyl-isoxazol-4-ylmethoxy)-pyrazine-2-carboxylic acid cyclopropylamide] | 1.9
15 | Cc1onc(-c2ccccc2)c1COc1cnc(C(=O)NC2CCC(F)(F)CC2)cn1 [Example 7, 5-(5-Methyl-3-phenyl-isoxazol-4-ylmethoxy)-pyrazine-2-carboxylic acid (4,4-difluoro-cyclohexyl)-amide] | 10.6
16 | CC(C)NC(=O)c1cnc(OCc2conc2-c2ccc(F)cc2)cn1 [Example 15, 5-[3-(4-Fluoro-phenyl)-isoxazol-4-ylmethoxy]-pyrazine-2-carboxylic acid isopropylamide] | 11
17 | C[C@@H](CO)NC(=O)c1cnc(OCc2conc2-c2ccc(Cl)cc2)cn1 [Example 17, 5-[3-(4-Chloro-phenyl)-isoxazol-4-ylmethoxy]-pyrazine-2-carboxylic acid ((S)-2-hydroxy-1-methyl-ethyl)-amide] | 32
18 | C[C@H](CO)NC(=O)c1cnc(OCc2conc2-c2ccc(Cl)cc2)cn1 [Example 18, 5-[3-(4-Chloro-phenyl)-isoxazol-4-ylmethoxy]-pyrazine-2-carboxylic acid ((R)-2-hydroxy-1-methyl-ethyl)-amide] | 7.4
19 | CC(C)NC(=O)c1cnc(OCc2conc2-c2ccccn2)cn1 [Example 20, 5-(3-Pyridin-2-yl-isoxazol-4-ylmethoxy)-pyrazine-2-carboxylic acid isopropylamide] | 9.6
20 | COC(=O)c1cnc(OCc2c(-c3ccccc3)noc2C)cn1 [Example 1, 5-(5-Methyl-3-phenyl-isoxazol-4-ylmethoxy)-pyrazine-2-carboxylic acid methyl ester] | 29
21 | Cc1onc(-c2ccccc2)c1COc1cnc(C(=O)NCC2CC2)cn1 [Example 2, 5-(5-Methyl-3-phenyl-isoxazol-4-ylmethoxy)-pyrazine-2-carboxylic acid cyclopropylmethyl-amide] | 3.1
